Reference: patent US20050282159A1, “Rpob gene of streptomyces, primer specific to streptomyces, and identification method of streptomyces having rifampin resistance or sensitivity by using the same” (priority 2001, published 2005)

What was measured:
[1] = test system: S. griseoflavus KCCM 12624; details: AAC genotype
Protocol: (§1) The primer sets of SEQ ID NOs: 1 and 2 were used to amplify rpoB genes of 60 strains, and nucleotides of the […] products were analyzed with an automatic sequencer. SRPOF1 as a forward primer and SRPOR1 as a backward primer were used.

[2] = test system: S. cremeus KCCM 40509; details: TCG (TCC) genotype
Protocol: as §1

[3] = test system: S. lividans KCTC 1154; details: AAC genotype
Protocol: as §1

[4] = test system: S. citreofluorescens KCTC 9710; details: TCG (TCC) genotype
Protocol: as §1

[5] = test system: S. coerulescens KCCM 40508; details: TCG (TCC) genotype
Protocol: as §1

[6] = test system: S. carpinensis KCTC 9128; details: TCG (TCC) genotype
Protocol: as §1

[7] = test system: S. fimbriatus KCCM 11888; details: TCG (TCC) genotype
Protocol: as §1

[8] = test system: S. erythraeus KCCM 40477; details: TCG (TCC) genotype
Protocol: as §1

[9] = test system: S. albospinus KCTC 9762; details: TCG (TCC) genotype
Protocol: as §1

[10] = test system: S. ambofaciens KCCM 40182; details: AAC genotype
Protocol: as §1

[11] = test system: S. murinus KCTC 9492; details: AAC genotype
Protocol: as §1

[12] = test system: S. aburaviensis KCTC 9663; details: TCG (TCC) genotype
Protocol: as §1

[13] = test system: S. tendae KCCM 40105; details: AAC genotype
Protocol: as §1

[14] = test system: S. coelescens KCCM 40742; details: AAC genotype
Protocol: as §1

[15] = test system: S. albovinaceous KCCM 40177; details: TCG (TCC) genotype
Protocol: as §1

[16] = test system: S. violaceoruber KCTC 9787; details: AAC genotype
Protocol: as §1

[17] = test system: S. xanthocidicus KCCM 40286; details: AAC genotype
Protocol: as §1

[18] = test system: S. eurythermus KCTC 9731; details: TCG (TCC) genotype
Protocol: as §1

[19] = test system: S. chivaensis KCTC 9786; details: AAC genotype
Protocol: as §1

[20] = test system: S. candidus KCTC 9020; details: TCG (TCC) genotype
Protocol: as §1

[21] = test system: S. kifunensis KCTC 9734; details: TCG (TCC) genotype
Protocol: as §1

[22] = test system: S. griseoruber KCCM 40658; details: TCG (TCC) genotype
Protocol: as §1

[23] = test system: S. chromogenes KCCM 40727; details: TCG (TCC) genotype
Protocol: as §1

[24] = test system: S. erumpens KCTC 9729; details: TCG (TCC) genotype
Protocol: as §1

[25] = test system: S. californicus KCCM 40605; details: TCG (TCC) genotype
Protocol: as §1

[26] = test system: S. coeruleofuscus KCCM 40506; details: TCG (TCC) genotype
Protocol: as §1

[27] = test system: S. amakusaensis KCTC 9753; details: TCG (TCC) genotype
Protocol: as §1

[28] = test system: S. halstedii KCCM 40613; details: TCG (TCC) genotype
Protocol: as §1

[29] = test system: S. umbrinus KCCM 40316; details: AAC genotype
Protocol: as §1

[30] = test system: S. rubiginosus KCTC 9042; details: AAC genotype
Protocol: as §1

[31] = test system: S. cellulose KCTC 9703; details: AAC genotype
Protocol: as §1

[32] = test system: S. azureus KCCM 40485; details: TCG (TCC) genotype
Protocol: as §1

[33] = test system: S. althioticus KCTC 9752; details: AAC genotype
Protocol: as §1

[34] = test system: S. griseostramineus KCCM 40526; details: TCG (TCC) genotype
Protocol: as §1

[35] = test system: S. flavovirens KCCM 40165; details: TCG (TCC) genotype
Protocol: as §1

[36] = test system: S. baldacii KCCM 41326; details: TCG (TCC) genotype
Protocol: as §1

[37] = test system: S. antibioticus KCTC 1137; details: TCG (TCC) genotype
Protocol: as §1

[38] = test system: S. griseolosporeus KCTC 9791; details: TCG (TCC) genotype
Protocol: as §1

[39] = test system: S. fumanus KCCM 40522; details: TCG (TCC) genotype
Protocol: as §1

[40] = test system: S. gougeroti KCCM 40681; details: TCG (TCC) genotype
Protocol: as §1

[41] = test system: S. humiferus KCTC 9116; details: AAC genotype
Protocol: as §1

[42] = test system: S. disatochromogenes KCCM 40449; details: TCG (TCC) genotype
Protocol: as §1

[43] = test system: S. aureufaciens KCCM 40127; details: TCG (TCC) genotype
Protocol: as §1

[44] = test system: S. cinnamoneus KCCM 40572; details: TCG (TCC) genotype
Protocol: as §1

[45] = test system: S. yokosukanens KCCM 40633; details: AAC genotype
Protocol: as §1

[46] = test system: S. cyaneofuscatus KCCM 40517; details: TCG (TCC) genotype
Protocol: as §1

CO[C@H]1/C=C/O[C@@]2(C)Oc3c(C)c(O)c4c(O)c(c(/C=N/N5CCN(C)CC5)c(O)c4c3C2=O)NC(=O)/C(C)=C\C=C\[C@H](C)[C@H](O)[C@@H](C)[C@@H](O)[C@@H](C)[C@H](OC(C)=O)[C@@H]1C [rifampin]
genotype (rifampin-resistant or -sensitive strain) [1]: +
genotype (rifampin-resistant or -sensitive strain) [2]: −
genotype (rifampin-resistant or -sensitive strain) [3]: +
genotype (rifampin-resistant or -sensitive strain) [4]: −
genotype (rifampin-resistant or -sensitive strain) [5]: −
genotype (rifampin-resistant or -sensitive strain) [6]: −
genotype (rifampin-resistant or -sensitive strain) [7]: −
genotype (rifampin-resistant or -sensitive strain) [8]: −
genotype (rifampin-resistant or -sensitive strain) [9]: −
genotype (rifampin-resistant or -sensitive strain) [10]: +
genotype (rifampin-resistant or -sensitive strain) [11]: +
genotype (rifampin-resistant or -sensitive strain) [12]: −
genotype (rifampin-resistant or -sensitive strain) [13]: +
genotype (rifampin-resistant or -sensitive strain) [14]: +
genotype (rifampin-resistant or -sensitive strain) [15]: −
genotype (rifampin-resistant or -sensitive strain) [16]: +
genotype (rifampin-resistant or -sensitive strain) [17]: +
genotype (rifampin-resistant or -sensitive strain) [18]: −
genotype (rifampin-resistant or -sensitive strain) [19]: +
genotype (rifampin-resistant or -sensitive strain) [20]: −
genotype (rifampin-resistant or -sensitive strain) [21]: −
genotype (rifampin-resistant or -sensitive strain) [22]: −
genotype (rifampin-resistant or -sensitive strain) [23]: −
genotype (rifampin-resistant or -sensitive strain) [24]: −
genotype (rifampin-resistant or -sensitive strain) [25]: −
genotype (rifampin-resistant or -sensitive strain) [26]: −
genotype (rifampin-resistant or -sensitive strain) [27]: −
genotype (rifampin-resistant or -sensitive strain) [28]: −
genotype (rifampin-resistant or -sensitive strain) [29]: +
genotype (rifampin-resistant or -sensitive strain) [30]: +
genotype (rifampin-resistant or -sensitive strain) [31]: +
genotype (rifampin-resistant or -sensitive strain) [32]: −
genotype (rifampin-resistant or -sensitive strain) [33]: +
genotype (rifampin-resistant or -sensitive strain) [34]: −
genotype (rifampin-resistant or -sensitive strain) [35]: −
genotype (rifampin-resistant or -sensitive strain) [36]: −
genotype (rifampin-resistant or -sensitive strain) [37]: −
genotype (rifampin-resistant or -sensitive strain) [38]: −
genotype (rifampin-resistant or -sensitive strain) [39]: −
genotype (rifampin-resistant or -sensitive strain) [40]: −
genotype (rifampin-resistant or -sensitive strain) [41]: +
genotype (rifampin-resistant or -sensitive strain) [42]: −
genotype (rifampin-resistant or -sensitive strain) [43]: −
genotype (rifampin-resistant or -sensitive strain) [44]: −
genotype (rifampin-resistant or -sensitive strain) [45]: +
genotype (rifampin-resistant or -sensitive strain) [46]: −
